Measured values taken from US20260335514A1, “Drug-Coated Medical Devices & Methods of Making” (Bard Peripheral Vascular, Inc., priority 2022, published 2026).
Values after ≈ are worked out from the molar mass of the structure shown. Values joined by “and” are separate entries in the source; they are usually repeats but may differ in a detail not shown here. Identical values can stand only once. Like-named read-outs stand apart in the source and are kept apart here.

How the values were obtained:
[1] = test system: femoral arteries of porcine model; assay: morphometry of stented arteries (Example 4); assay type: in vivo; settings: for amount of restenosis observed (in words): 60 and 90 days
Method: (§1) In Example 4, formulations for stent drug coatings were prepared as subsequently described, followed by obtaining 7, 28, 60, and 90 days histological data from in vivo studies when implanted in femoral arteries of porcine model.
(§2) Five total formulations were used: a control of PVDF only, prepared at a concentration of 5 mg/mL in a solution of 90% acetone and 10% cyclohexane; a colchicine coating, prepared in a 5:1 PVDF: colchicine ratio with 5 mg/mL provided to 90% acetone and 10% DMF; a roflumilast coating at a 5:1 PVDF:roflumilast ratio, with […] provided to a 42.5% EtOAc, 50% acetone, and 7.5% DMF solution; a tadalafil coating prepared at 3:1 PVDF:tadalafil, provided at 5 mg/mL in a solution of 30% EtOAc, 60% acetone, and 10% DMF; and a sunitinib coating provided at 3:1 PVDF:sunitinib malate, prepared at 5 mg/mL in a solution of 60% MeOAc, 30% acetone, and 10% DMF. Coatings were provided to 5×40 mm and 6×40 mm stents. Loading concentrations were assessed prior to and after ETO (ethylene oxide) sterilization and no discernable change was noted by the process.
(§3) Histological studies were then performed at 60 and 90 days.

[2] = test system: femoral arteries of porcine model; assay: histology of stented arteries (Example 4); assay type: in vivo
Method: as §1, §2, §3

[3] = test system: femoral arteries of porcine model; assay: in vivo pharmacokinetics of drug coated stents (Example 4); settings: 7 and 28 days after implantation; preliminary; FIG. 10
Method: as §1, §2
FIG. 10 sets forth some preliminary pharmacokinetic data obtained from the prepared stents at 7 and 28 days after implantation within the pigs.

solubility in PBS = assay type: physicochemical
Method: Drug coatings with crystalline forms of tyrosine kinase inhibitors were also examined. Sunitinib was again chosen as the candidate drug and crystal pamoate salts were prepared by recrystaliization in ethanol or ethanol and DMF for a hemi-pamoate.

[4] = octanol-water; cited from earlier work
[5] = cited from earlier work

Row | Fibrin % ([2]; 60 days) [%] | Giant cell % ([2]; 60 days) [%] | Inflammation Score ([2]; 60 days) | PGs/Collagen score ([2]; 60 days) | Fibrin % ([2]; 90 days) [%] | Giant cell % ([2]; 90 days) [%] | Inflammation Score ([2]; 90 days) | PGs/Collagen score ([2]; 90 days) | solubility in PBS (solubility in PBS) [µM] | Compound | Restenosis % area ([2]; 60 days) [%] | Restenosis % area ([2]; 90 days) [%] | further results
1 | – | – | – | – | – | – | – | – | – | COc1cc2c(c(OC)c1OC)-c1ccc(OC)c(=O)cc1[C@@H](NC(C)=O)CC2 [Colchicine, colchicine] | – | – | % Stenosis ([1]; pig, in vivo): 67.45% and 81.83%; Medial Area ([1]; pig, in vivo): 1.22; percentage of stenosis (in words) ([1]; pig, in vivo): seemingly accelerated amount of stenosis; Inflammation Score ([2]; pig, in vivo): 3.06; Restenosis % area ([2]; pig, in vivo): 67.45% and 81.83%
2 | 16.65 | 0.49 | 0.69 | 0.75 | 1.0 | 0.0 | 0.56 | 1.44 | – | O=C(Nc1c(Cl)cncc1Cl)c1ccc(OC(F)F)c(OCC2CC2)c1 [Roflumilast, roflumilast] | 40.45 | 30.69 | pharmacokinetic data versus target (in words) [3]: expected target ranges
3 | – | – | – | – | – | – | – | – | 26.4 (≈ 10.5 µg/mL) | CCN(CC)CCNC(=O)c1c(C)[nH]c(/C=C2\C(=O)Nc3ccc(F)cc32)c1C [Sunitinib as a free base, sunitinib] | – | – | –
4 | 33.17 | 4.14 | 1.19 | 1.06 | 1.0 | 2.03 | 0.25 | 1.31 | – | CCN(CC)CCNC(=O)c1c(C)[nH]c(/C=C2\C(=O)Nc3ccc(F)cc32)c1C [Sunitinib, sunitinib] | 33.76 | 30.77 | amount of restenosis observed (in words) [1]: improvements in the amount of restenosis observed; percentage of stenosis (in words) ([1]; 60 days): similar
5 | 26.69 | 7.26 | 1.19 | 1.44 | 1.31 | 30.12 | 1.94 | 1.38 | – | CN1CC(=O)N2[C@H](c3ccc4c(c3)OCO4)c3[nH]c4ccccc4c3C[C@@H]2C1=O [Tadalafil, tadalafil] | 35.38 | 27.4 | amount of restenosis observed (in words) [1]: improvements in the amount of restenosis observed; percentage of stenosis (in words) ([1]; 60 days): similar; pharmacokinetic data versus target (in words) [3]: lower than expected
6 | – | – | – | – | – | – | – | – | 6.02 (≈ 2.4 µg/mL) | CCN(CC)CCNC(=O)c1c(C)[nH]c(/C=C2\C(=O)Nc3ccc(F)cc32)c1C [hemi-pamoate] | – | – | –
7 | – | – | – | – | – | – | – | – | – | CC(=O)O[C@H]1C(=O)[C@@]2(C)[C@H]([C@H](OC(=O)c3ccccc3)[C@]3(O)C[C@H](OC(=O)[C@H](O)[C@@H](NC(=O)c4ccccc4)c4ccccc4)C(C)=C1C3(C)C)[C@]1(OC(C)=O)CO[C@@H]1C[C@@H]2O [paclitaxel] | – | – | log P [4]: 7.4
8 | – | – | – | – | – | – | – | – | 9.6 | CCN(CC)CCNC(=O)c1c(C)[nH]c(/C=C2\C(=O)Nc3ccc(F)cc32)c1C [pamoate crystal] | – | – | –
9 | – | – | – | – | – | – | – | – | – | CCN(CC)CCNC(=O)c1c(C)[nH]c(/C=C2\C(=O)Nc3ccc(F)cc32)c1C [sunitinib malate] | – | – | water solubility [5]: about 25 mg/mL; solubility in PBS (solubility in PBS; listed as malate salt): 1231 µM
